The source made the active and inactive calls.
Tests used:
Keap1/Nrf2 = Keap1/Nrf2 (Homo sapiens, UniProt Q14145); assay: Keap1-Nrf2 protein-protein interaction inhibitors, dose response, biochemical, fluorescence polarization, cherry-picked samples (AID 588683)
[1] = molecular target: T1, Corticotropin-releasing factor receptor 2/Corticotropin-releasing factor-binding protein (Homo sapiens, UniProt P24387+Q13324); assay: activators of CRF receptor 2 with binding protein – uHTS hits, confirmation (AID 602473); type: functional; conditions: read-out: EC50_Mean
T1 sequence (Q13324 whole entry): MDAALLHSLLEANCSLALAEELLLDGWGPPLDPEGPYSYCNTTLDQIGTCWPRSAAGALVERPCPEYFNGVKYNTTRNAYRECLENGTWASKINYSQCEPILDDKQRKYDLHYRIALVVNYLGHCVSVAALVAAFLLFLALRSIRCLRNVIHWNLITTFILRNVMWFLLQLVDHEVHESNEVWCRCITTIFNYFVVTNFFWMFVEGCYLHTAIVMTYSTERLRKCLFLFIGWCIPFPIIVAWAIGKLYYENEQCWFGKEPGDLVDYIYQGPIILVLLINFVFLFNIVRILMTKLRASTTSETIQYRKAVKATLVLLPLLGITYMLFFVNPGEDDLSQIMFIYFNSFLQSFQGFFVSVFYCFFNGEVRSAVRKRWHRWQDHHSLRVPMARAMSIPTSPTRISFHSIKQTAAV
T1 sequence (P24387 whole entry): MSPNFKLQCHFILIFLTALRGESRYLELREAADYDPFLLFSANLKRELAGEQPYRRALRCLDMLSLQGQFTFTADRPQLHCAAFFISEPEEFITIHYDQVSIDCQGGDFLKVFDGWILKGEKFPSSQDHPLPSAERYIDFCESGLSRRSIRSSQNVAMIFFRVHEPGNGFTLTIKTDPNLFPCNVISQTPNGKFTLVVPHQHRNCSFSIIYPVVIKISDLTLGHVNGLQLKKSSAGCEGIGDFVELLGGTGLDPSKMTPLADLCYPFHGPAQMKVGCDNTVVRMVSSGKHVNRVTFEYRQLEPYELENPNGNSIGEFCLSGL

H4 = assay: Luminescence Cell-Based Dose Response HTS to Identify Activators of 5'UTR Stem-Loop Driven Prion Protein mRNA Translation in H4 Neuroglioblastoma Cells. [Related pubchem assays: 1829 (Project Summary), 1814 (Primary HTS)]; type: functional; conditions: Homo sapiens
[2] = Luminescence Cell-Based Dose Confirmation HTS to Identify Activators of 5'UTR Stem-Loop Driven Alpha-Synuclein mRNA Translation in H4 Neuroglioblastoma Cells. [Related pubchem assays: 1829 (Project Summary), 1814 (Primary HTS)]; type: functional
[3] = Luminescence Cell-Based Dose Response HTS to Identify Activators of Luciferase Translation or Activity in H4 […] Cells. [Related pubchem assays: 1829 (Project Summary), 1814 (Primary HTS)]; type: functional
[4] = Luminescence Cell-Based Dose Response HTS to Identify Inhibitors of 5'UTR Stem-Loop Driven Prion Protein mRNA Translation in H4 Neuroglioblastoma Cells. [Related pubchem assays: 1827 (Project Summary), 1813 (Primary HTS)]; type: functional
Beta-galactosidase [5] = molecular target: T2, Beta-galactosidase (Escherichia coli, UniProt Q8VNN2); type: functional
T2 sequence (Q8VNN2 whole entry): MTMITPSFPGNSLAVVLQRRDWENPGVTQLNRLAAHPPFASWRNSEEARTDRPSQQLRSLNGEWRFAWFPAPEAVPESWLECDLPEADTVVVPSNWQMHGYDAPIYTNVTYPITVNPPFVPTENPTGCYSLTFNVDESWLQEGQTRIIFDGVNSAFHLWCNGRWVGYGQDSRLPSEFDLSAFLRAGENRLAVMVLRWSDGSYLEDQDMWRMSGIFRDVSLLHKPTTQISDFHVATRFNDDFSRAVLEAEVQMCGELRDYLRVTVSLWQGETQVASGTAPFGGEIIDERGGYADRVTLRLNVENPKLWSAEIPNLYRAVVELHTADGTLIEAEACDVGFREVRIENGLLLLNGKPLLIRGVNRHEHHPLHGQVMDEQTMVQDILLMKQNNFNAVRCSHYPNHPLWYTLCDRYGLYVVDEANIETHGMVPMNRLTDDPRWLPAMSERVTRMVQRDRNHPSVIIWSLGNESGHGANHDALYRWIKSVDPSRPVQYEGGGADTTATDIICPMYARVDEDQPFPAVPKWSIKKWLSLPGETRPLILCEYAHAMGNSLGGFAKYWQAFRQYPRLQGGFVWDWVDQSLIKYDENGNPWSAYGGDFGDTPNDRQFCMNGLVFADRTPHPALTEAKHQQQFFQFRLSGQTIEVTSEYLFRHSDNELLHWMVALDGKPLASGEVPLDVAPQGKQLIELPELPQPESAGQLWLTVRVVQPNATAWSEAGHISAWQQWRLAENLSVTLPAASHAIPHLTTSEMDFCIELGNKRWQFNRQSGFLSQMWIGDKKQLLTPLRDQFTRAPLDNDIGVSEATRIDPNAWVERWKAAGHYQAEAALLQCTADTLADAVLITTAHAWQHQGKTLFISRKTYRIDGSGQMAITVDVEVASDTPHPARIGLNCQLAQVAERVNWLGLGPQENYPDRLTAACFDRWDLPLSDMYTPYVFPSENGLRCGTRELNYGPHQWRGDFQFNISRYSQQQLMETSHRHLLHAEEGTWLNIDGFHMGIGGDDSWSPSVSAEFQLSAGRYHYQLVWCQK

[6] = molecular target: T3, Kappa-type opioid receptor (Homo sapiens, UniProt P41145); type: functional
T3 sequence (P41145 whole entry): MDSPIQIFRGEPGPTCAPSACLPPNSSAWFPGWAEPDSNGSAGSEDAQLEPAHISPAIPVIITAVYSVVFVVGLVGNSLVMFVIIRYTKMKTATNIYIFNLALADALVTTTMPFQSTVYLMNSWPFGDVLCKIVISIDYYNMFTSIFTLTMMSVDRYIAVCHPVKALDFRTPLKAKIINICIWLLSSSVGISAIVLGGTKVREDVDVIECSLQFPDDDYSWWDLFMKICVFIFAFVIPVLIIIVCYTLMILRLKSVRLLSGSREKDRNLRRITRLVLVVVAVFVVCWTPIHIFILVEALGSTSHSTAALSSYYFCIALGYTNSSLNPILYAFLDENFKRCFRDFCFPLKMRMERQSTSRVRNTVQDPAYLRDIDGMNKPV

[7] = cytotoxicity in HEK-293T cells, dose response, cytotoxicity control for TCR NF-kB inhibitor project, luminescence, T-cell screen hits (AID 489026); type: functional, cell-based;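 note: cells exposed to compound about 14 hours before the viability readout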
[8] = molecular target: T4, Replicative DNA helicase DnaB (Mycobacterium tuberculosis, UniProt P9WMR3); assay: DnaB intein splicing inhibitors, dose response, biochemical, cell-free fluorescence (AID 449749); type: functional
T4 sequence (P9WMR3 whole entry): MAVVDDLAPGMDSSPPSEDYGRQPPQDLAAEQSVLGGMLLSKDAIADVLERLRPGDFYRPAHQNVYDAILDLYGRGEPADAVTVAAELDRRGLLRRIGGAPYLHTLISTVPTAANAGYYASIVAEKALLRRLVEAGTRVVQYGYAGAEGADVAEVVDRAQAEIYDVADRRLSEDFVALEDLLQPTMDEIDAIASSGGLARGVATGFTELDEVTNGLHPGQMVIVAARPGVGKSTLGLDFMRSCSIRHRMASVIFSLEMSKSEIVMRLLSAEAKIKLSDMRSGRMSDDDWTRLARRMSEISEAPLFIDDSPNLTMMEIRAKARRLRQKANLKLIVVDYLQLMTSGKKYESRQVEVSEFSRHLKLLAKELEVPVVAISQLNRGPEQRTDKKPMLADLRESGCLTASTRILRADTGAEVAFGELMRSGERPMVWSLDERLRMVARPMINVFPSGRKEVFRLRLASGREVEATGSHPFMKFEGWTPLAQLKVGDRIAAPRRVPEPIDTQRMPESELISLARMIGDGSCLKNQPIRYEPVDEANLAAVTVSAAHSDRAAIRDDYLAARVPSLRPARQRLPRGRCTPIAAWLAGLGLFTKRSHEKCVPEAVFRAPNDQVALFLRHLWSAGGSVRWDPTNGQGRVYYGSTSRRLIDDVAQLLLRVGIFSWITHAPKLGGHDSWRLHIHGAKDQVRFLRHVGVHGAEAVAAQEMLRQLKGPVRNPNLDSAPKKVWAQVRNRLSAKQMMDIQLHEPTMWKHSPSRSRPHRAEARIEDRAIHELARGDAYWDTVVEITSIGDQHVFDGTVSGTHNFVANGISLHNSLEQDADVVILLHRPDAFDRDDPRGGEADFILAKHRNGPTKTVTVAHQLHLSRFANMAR

[9] = non-specific cell cytotoxicity, dose response, cytotoxicity control for PAX8 inhibitor project, plate reader, dry powder samples (AID 743021); type: functional, cell-based
cells = type: functional
[10] = molecular target: T5, Delta-type opioid receptor (Homo sapiens, UniProt P41143); assay: HTS Image-Based Screen for Antagonists of the DOR Receptor. [Related pubchem assays (depositor defined):AID1777, AID1785, AID1786, AID2133]; type: functional
T5 sequence (P41143 whole entry): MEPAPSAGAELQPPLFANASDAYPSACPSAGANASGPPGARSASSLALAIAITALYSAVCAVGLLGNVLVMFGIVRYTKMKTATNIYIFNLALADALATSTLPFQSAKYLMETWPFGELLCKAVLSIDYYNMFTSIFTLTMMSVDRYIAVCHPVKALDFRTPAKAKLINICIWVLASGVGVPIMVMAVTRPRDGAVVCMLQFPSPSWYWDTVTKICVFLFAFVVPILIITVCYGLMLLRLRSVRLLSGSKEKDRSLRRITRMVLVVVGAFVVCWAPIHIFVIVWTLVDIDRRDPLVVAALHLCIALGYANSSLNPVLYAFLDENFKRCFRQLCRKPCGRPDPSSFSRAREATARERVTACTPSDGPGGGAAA

[11] = control 3'UTR Renilla luciferase suppression, dose response, counter-screen for Shn3 inhibitor project, cell-based, Clone20-Shn3RL, cherry-picked (AID 624133); type: functional
[12] = molecular target: T6, Type-1 angiotensin II receptor (Homo sapiens, UniProt P30556); assay: AT1 receptor antagonists, dose response, selectivity assay for APJ receptor antagonist project, cell-based, uHTS hits (AID 463214); type: functional;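 note: antagonist potency against angiotensin II stimulated AT1 response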
T6 sequence (P30556 whole entry): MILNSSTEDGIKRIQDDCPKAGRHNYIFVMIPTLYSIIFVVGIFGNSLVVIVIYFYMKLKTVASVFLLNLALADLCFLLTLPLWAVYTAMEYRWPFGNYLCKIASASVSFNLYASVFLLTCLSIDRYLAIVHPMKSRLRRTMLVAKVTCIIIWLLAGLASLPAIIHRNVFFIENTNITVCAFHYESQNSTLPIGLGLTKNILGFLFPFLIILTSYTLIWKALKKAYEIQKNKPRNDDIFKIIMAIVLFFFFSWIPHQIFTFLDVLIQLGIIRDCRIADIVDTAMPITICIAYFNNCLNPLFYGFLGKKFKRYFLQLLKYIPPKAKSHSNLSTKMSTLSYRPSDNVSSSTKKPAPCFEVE

[13] = cytotoxicity toward DRD oncogenic fibroblasts, dose response, cell-based, non-viral oncogenic, luminescence (AID 1934); type: functional; conditions: Homo sapiens
[14] = Shn3 3'UTR reporter inhibitors, dose response, cell-based, Clone20 osteoblasts, firefly luciferase, cherry-picked (AID 624132); type: functional;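 note: firefly luciferase luminescence from reporter carrying the Shn3 3'UTR in osteoblasts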
INS1 = assay: beta cell apoptosis inhibitors, cytokine rescue, dose response, luminescence, retest (AID 449756); type: functional, cell-based; conditions: Rattus norvegicus;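 note: cell death triggered by IL-1 beta plus TNF-alpha plus IFN-gamma mixture; protective hits raise ATP signal compared with cytokine alone wells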
Protein RecA = molecular target: T7, Protein RecA (Mycobacterium tuberculosis, UniProt P9WHJ3); assay: Fluorescence Cell-Free Homogeneous Dose Retest to Identify Inhibitors of RecA-Intein Splicing Activity. [Related pubchem assays (depositor defined):AID2097, AID2223, AID489010, AID492950]; type: functional
T7 sequence (P9WHJ3 whole entry): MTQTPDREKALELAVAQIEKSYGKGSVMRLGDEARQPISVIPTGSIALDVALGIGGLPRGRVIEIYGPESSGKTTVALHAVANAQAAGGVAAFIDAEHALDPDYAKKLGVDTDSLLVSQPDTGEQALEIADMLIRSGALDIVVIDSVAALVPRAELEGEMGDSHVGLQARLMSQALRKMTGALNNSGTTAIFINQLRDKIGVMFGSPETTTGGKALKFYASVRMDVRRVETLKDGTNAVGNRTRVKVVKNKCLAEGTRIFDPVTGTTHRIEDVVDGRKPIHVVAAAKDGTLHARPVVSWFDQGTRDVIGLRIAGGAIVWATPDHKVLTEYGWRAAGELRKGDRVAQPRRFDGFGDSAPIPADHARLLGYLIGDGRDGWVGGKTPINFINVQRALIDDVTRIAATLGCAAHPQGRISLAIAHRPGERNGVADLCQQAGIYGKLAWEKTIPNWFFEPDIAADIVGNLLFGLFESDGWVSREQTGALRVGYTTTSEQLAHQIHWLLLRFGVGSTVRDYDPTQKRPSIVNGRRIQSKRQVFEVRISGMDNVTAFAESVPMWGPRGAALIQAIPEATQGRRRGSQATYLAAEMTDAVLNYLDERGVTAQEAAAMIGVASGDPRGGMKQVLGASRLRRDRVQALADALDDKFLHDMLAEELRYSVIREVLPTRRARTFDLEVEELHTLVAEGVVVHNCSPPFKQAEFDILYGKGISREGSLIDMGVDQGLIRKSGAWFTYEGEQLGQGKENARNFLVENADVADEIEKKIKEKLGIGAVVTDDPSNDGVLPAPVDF

[15] = molecular target: T5, Delta-type opioid receptor; assay: HTS Image-Based Screen for Agonists of the DOR Receptor. [Related pubchem assays (depositor defined):AID1777, AID1786, AID2133]; type: functional
BJ [16] = assay: cytotoxicity toward BJ-TERT-LT-ST fibroblasts, dose response, cell-based, RAS-independent, luminescence (AID 1935); type: functional; conditions: Homo sapiens;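 note: BJ fibroblasts immortalized with TERT plus LT and ST oncogenes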
[17] = THP-1 cell cytotoxicity, dose response, cytotoxicity control for non-replicating M. tuberculosis project (AID 489025); type: functional
[18] = HepG2 cell cytotoxicity, dose response, cytotoxicity control for Shn3 inhibitor project, CellTiter-Glo, cherry-picked (AID 624134); type: functional, cell-based
[19] = molecular target: T3, Kappa-type opioid receptor; type: functional; remark: listed apart in the source
[20] = inhibitors of firefly luciferase expression or activity, dose response, H4 neuroglioma cells, luminescence (AID 1990); type: functional, cell-based
BJ [21] = assay: cytotoxicity toward BJ-TERT fibroblasts, dose response, cell-based, RAS-independent, luminescence (AID 1933); type: functional; conditions: Homo sapiens
[22] = inhibitors of SNCA 5'UTR-driven reporter translation, confirmation, H4 neuroglioma cells, luminescence (AID 1988); type: functional, cell-based
Beta-galactosidase [23] = molecular target: T2, Beta-galactosidase; assay: PubChem AID 485352; type: functional
Mu-type opioid receptor = Mu-type opioid receptor (Homo sapiens, UniProt P35372); assay: HTS Image-Based Screen for Agonists of the MOR Receptor. [Related pubchem assays (depositor defined):AID1777, AID1785, AID1786, AID2133]; type: functional;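 note: imaging of beta-arrestin GFP recruitment into spots after receptor activation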
Chain of Mu-type opioid receptor (P35372 whole entry): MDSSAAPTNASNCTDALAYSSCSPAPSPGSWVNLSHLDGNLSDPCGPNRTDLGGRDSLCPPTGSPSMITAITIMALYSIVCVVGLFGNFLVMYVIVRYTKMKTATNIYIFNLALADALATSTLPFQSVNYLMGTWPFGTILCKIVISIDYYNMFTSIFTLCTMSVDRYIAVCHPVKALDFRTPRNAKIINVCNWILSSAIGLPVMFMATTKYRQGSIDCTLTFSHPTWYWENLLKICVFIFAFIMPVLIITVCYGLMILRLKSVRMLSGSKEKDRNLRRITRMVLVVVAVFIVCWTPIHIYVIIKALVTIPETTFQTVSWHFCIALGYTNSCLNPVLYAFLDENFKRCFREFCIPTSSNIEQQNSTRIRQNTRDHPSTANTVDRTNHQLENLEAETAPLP

BJ [24] = assay: cells; type: functional, cell-based; conditions: Homo sapiens
Paired box protein Pax-8 = Paired box protein Pax-8 (Homo sapiens, UniProt Q06710); assay: inhibitors of PAX8-driven TPO luciferase reporter, dose response, RMG-I cells, cherry-pick (AID 687027); type: functional, cell-based;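 note: luciferase reporter driven by Pax8 target thyroperoxidase promoter measured by SteadyGlo luminescence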
Chain of Paired box protein Pax-8 (Q06710 whole entry): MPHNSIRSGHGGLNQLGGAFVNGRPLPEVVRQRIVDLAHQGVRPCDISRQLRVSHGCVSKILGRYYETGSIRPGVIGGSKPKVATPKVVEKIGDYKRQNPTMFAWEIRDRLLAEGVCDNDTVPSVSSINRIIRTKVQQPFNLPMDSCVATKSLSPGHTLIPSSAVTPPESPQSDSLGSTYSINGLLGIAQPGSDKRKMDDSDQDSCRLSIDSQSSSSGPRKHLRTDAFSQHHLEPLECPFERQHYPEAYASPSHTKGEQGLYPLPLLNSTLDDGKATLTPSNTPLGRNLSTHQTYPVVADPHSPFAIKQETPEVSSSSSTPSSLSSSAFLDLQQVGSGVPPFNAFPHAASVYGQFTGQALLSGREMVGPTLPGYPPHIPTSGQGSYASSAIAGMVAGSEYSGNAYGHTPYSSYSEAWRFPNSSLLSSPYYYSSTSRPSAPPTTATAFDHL

Chain of Keap1/Nrf2 (Q16236 whole entry): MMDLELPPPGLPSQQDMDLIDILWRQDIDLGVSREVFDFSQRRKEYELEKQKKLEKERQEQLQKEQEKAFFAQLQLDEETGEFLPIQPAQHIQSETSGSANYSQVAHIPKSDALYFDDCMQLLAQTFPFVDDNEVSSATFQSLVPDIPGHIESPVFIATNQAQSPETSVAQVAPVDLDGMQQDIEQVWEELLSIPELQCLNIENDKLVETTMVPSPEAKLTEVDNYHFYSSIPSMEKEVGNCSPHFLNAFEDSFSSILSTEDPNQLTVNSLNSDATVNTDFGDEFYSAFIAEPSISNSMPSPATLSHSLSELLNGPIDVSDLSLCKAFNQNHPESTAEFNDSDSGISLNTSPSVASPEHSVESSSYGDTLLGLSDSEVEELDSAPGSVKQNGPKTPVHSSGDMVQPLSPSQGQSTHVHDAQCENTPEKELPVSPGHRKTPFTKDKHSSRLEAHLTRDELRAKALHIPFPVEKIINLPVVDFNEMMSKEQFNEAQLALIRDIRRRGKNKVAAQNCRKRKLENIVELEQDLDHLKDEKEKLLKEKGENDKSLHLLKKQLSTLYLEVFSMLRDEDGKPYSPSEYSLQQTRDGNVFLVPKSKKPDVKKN
Chain of Keap1/Nrf2 (Q14145 whole entry): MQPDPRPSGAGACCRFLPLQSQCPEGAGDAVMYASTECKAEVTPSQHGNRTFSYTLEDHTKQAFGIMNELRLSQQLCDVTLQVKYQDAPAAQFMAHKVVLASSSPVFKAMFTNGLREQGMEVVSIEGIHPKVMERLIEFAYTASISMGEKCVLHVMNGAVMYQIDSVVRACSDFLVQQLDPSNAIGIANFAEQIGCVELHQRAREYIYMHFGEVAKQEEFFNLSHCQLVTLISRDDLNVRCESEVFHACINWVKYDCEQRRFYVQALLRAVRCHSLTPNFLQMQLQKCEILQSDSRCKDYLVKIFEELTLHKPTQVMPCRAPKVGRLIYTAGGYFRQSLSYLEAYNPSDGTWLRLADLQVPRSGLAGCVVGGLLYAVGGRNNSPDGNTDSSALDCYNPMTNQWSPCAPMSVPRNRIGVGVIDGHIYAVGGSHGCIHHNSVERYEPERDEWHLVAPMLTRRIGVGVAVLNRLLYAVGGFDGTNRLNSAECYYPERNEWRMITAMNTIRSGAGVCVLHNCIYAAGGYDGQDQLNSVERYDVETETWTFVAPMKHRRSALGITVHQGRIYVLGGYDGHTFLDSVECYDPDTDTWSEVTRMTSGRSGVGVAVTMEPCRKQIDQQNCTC

In the case of `CCN1C(=O)NC(=O)/C(=C\c2cn(CC(=O)N3CCCCC3)c3ccccc23)C1=O`, the AC50 (Keap1/Nrf2) is reported as 35.9 µM (active).
For `O=S(=O)([N-]c1nc2ccccc2nc1-[n+]1ccc(-c2ccncc2)cc1)c1ccccc1`, the EC50 [1] was > 53 µM (inactive), the EC50 (H4) was > 120 µM (not active) and the EC50 [2] was 55 µM (active). The AC50 (Keap1/Nrf2) was 31.5 µM (active) and the EC50 [3] was 9.78 µM (active).
With `CCS(=O)(=O)c1ncc(Cl)c(C(=O)Nc2ccc(S(=O)(=O)N(C)c3ccccc3)cc2)n1` the EC50 [4] was 8.51 µM (active), the EC50 (Beta-galactosidase [5]) was > 31.5 µM (inactive) and the IC50 [6] was 6.56 µM (active). The IC50 [7] was 59.5 µM (inactive), the AC50 [8] was 1.14 µM (active) and the AC50 [9] was 21.2 µM (active). The IC50 (cells) was > 50 µM (active), the IC50 [10] was 9.44 µM (active) and the AC50 [11] was 1.91 µM (active). For the same molecule, the IC50 [12] was 3.56 µM (active), the EC50 [13] was 4.16 µM (active) and the AC50 [14] was 0.308 µM (active). For the same molecule, the AC50 (INS1) was 5.7 µM (active), the EC50 (Protein RecA) was 1 µM (active) and the EC50 [15] was > 32 µM (inactive). The EC50 (BJ [16]) was 5.62 µM (inconclusive), the CC50 [17] was 10.6 µM (active) and the AC50 [18] was 10.7 µM (active). For the same molecule, the IC50 [19] was 4.2 µM, the EC50 [20] was > 120 µM (not active) and the EC50 (BJ [21]) was 0.784 µM (active). For the same molecule, the EC50 [22] was 5.71 µM (active), the EC50 (Beta-galactosidase [23]) was > 40 µM (inactive) and the EC50 (Mu-type opioid receptor) was > 32 µM (inactive). For the same molecule, the EC50 (BJ [24]) was 6.38 µM (inconclusive) and the AC50 (Paired box protein Pax-8) was 5.12 µM (active).

Reference: ChEMBL document CHEMBL1201862, “PubChem BioAssay data set” (2004)
